Where “and” joins values, the source holds several entries; their conditions need not be identical. Equal values may be shown once. Inconclusive results and toxic doses are left out. The calls were made as follows: active = survival T/C of 150% or more; inactive = T/C below 125% in these data.
Tested on: P388 leukemia ip, CD2F1 mice, survival T/C
Assay: NCI In Vivo Anticancer Drug Screen. Data for tumor model P388 Leukemia (intraperitoneal) in CD2F1 (CDF1) mice
Conditions: endpoint: median survival time, higher = longer survival
Summary of the method: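 Mice carrying the transplanted tumor received test compound or vehicle. Survival was recorded in each group, and the value is the treated-group measurement divided by that of the vehicle-treated control group.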

[1] = dose: 100.0 mg/kg/injection, schedule: Q04DX003 (ip), vehicle: saline with Tween-80
[2] = dose: 400.0 mg/kg/injection, schedule: Q04DX003 (ip), vehicle: saline with Tween-80
[3] = dose: 60.0 mg/kg/injection, schedule: Q01DX005 (ip), vehicle: saline with Tween-80
[4] = dose: 120.0 mg/kg/injection, schedule: Q01DX005 (ip), vehicle: saline with Tween-80
[5] = dose: 240.0 mg/kg/injection, schedule: Q01DX005 (ip), vehicle: saline with Tween-80
[6] = dose: 100.0 mg/kg/injection, schedule: Q04DX002 (ip), vehicle: saline with Tween-80
[7] = dose: 200.0 mg/kg/injection, schedule: Q04DX002 (ip), vehicle: saline with Tween-80
[8] = dose: 400.0 mg/kg/injection, schedule: Q04DX002 (ip), vehicle: saline with Tween-80
[9] = dose: 12.5 mg/kg/injection, schedule: Q01DX009 (ip), vehicle: saline with Tween-80
[10] = dose: 50.0 mg/kg/injection, schedule: Q01DX005 (ip), vehicle: Klucel (hydroxypropylcellulose) (HPC)
[11] = dose: 100.0 mg/kg/injection, schedule: Q01DX005 (ip), vehicle: Klucel (hydroxypropylcellulose) (HPC)
[12] = dose: 200.0 mg/kg/injection, schedule: Q01DX005 (ip), vehicle: Klucel (hydroxypropylcellulose) (HPC)
[13] = dose: 50.0 mg/kg/injection, schedule: Q01DX009 (ip), vehicle: saline with Tween-80
[14] = dose: 100.0 mg/kg/injection, schedule: Q01DX009 (ip), vehicle: saline with Tween-80
[15] = dose: 200.0 mg/kg/injection, schedule: Q01DX009 (ip), vehicle: saline with Tween-80
[16] = dose: 50.0 mg/kg/injection, schedule: Q01DX005 (ip), vehicle: saline with Tween-80
[17] = dose: 100.0 mg/kg/injection, schedule: Q01DX005 (ip), vehicle: saline with Tween-80
[18] = dose: 200.0 mg/kg/injection, schedule: Q01DX005 (ip), vehicle: saline with Tween-80

Measured: T/C

O=[N+]([O-])c1c(Cl)cc(Cl)c(-c2c(Cl)cc(Cl)c([N+](=O)[O-])c2Cl)c1Cl
inactive: dose: 25.0 mg/kg/injection, schedule: Q01DX009 (ip), vehicle: other 102 % of control | dose: 50.0 mg/kg/injection, schedule: Q01DX009 (ip), vehicle: other 106 % of control | dose: 100.0 mg/kg/injection, schedule: Q01DX009 (ip), vehicle: other 107 % of control | dose: 200.0 mg/kg/injection, schedule: Q01DX009 (ip), vehicle: other 106 % of control | dose: 400.0 mg/kg/injection, schedule: Q01DX009 (ip), vehicle: other 105 % of control

CCOC(=O)[C]1([Sb]([CH3])[CH3])N=NC(C(=O)OC)=C1C(=O)OC (stereo not given)
inactive: dose: 25.0 mg/kg/injection, schedule: Q04DX003 (ip), vehicle: saline 101 % of control and 98 % of control | dose: 50.0 mg/kg/injection, schedule: Q04DX003 (ip), vehicle: saline 100 % of control and 102 % of control | [1] 108 % of control | dose: 100.0 mg/kg/injection, schedule: Q04DX003 (ip), vehicle: saline 102 % of control and 104 % of control | dose: 200.0 mg/kg/injection, schedule: Q04DX003 (ip), vehicle: saline 107 % of control and 98 % of control | [2] 105 % of control

Cc1ncc(CO)c(C2NC(C(=O)O)CS2)c1O (stereo not given)
inactive: [3] 98 % of control | [4] 98 % of control | [5] 100 % of control

CCSC(=S)N(CC)c1nc2ccccc2o1
inactive: [6] 105 % of control | [7] 113 % of control | [8] 122 % of control

CCOC(=O)C(Cc1ccccc1)NO (stereo not given)
inactive: dose: 6.25 mg/kg/injection, schedule: Q01DX009 (ip), vehicle: saline with Tween-80 98 % of control | [9] 100 % of control

COc1ccc(/C=C\Cc2cc3c(cc2OCCO)OCO3)cc1
inactive: [3] 101 % of control | [4] 94 % of control | [5] 98 % of control

O=C1CSC(c2ccccn2)N1CCN1C(=O)CSC1c1ccccn1 (stereo not given)
inactive: [10] 94 % of control | [11] 96 % of control | [6] 97 % of control | [12] 97 % of control | [7] 102 % of control | [8] 93 % of control

O=C(Nc1ccc(Cl)cc1)NN1CCCCCC1
inactive: dose: 25.0 mg/kg/injection, schedule: Q04DX002 (ip), vehicle: saline with Tween-80 103 % of control | dose: 50.0 mg/kg/injection, schedule: Q04DX002 (ip), vehicle: saline with Tween-80 98 % of control

NCC(=O)O.[Cl][Ga]([Cl])[Cl]
inactive: dose: 66.0 mg/kg/injection, schedule: Q01DX009 (ip), vehicle: saline 110 % of control | dose: 100.0 mg/kg/injection, schedule: Q01DX009 (ip), vehicle: saline 110 % of control | dose: 100.0 mg/kg/injection, schedule: Q04DX003 (ip), vehicle: saline sonified 104 % of control | dose: 150.0 mg/kg/injection, schedule: Q01DX009 (ip), vehicle: saline 120 % of control

Cc1cc(C)nc(NS(=O)(=O)c2ccc(Nc3c4ccccc4nc4c([N+](=O)[O-])cccc34)cc2)n1
inactive: dose: 3.75 mg/kg/injection, schedule: Q01DX005 (ip), vehicle: saline with Tween-80 100 % of control | dose: 7.5 mg/kg/injection, schedule: Q01DX005 (ip), vehicle: saline with Tween-80 100 % of control | dose: 15.0 mg/kg/injection, schedule: Q01DX005 (ip), vehicle: saline with Tween-80 97 % of control

c1ccc(C2=NC3CCCC[C@H]3O2)cc1 (stereo not given in full)
inactive: dose: 30.0 mg/kg/injection, schedule: Q01DX005 (ip), vehicle: saline with Tween-80 108 % of control | [3] 101 % of control and 96 % of control | [4] 105 % of control | [5] 100 % of control

CC(=O)OCC1(C)NC(=O)c2ccccc2O1 (stereo not given)
inactive: [13] 109 % of control (2×) and 120 % of control | [14] 114 % of control and 118 % of control | [15] 100 % of control

OCCNC(Cc1ccccc1)c1c(O)ccc2ccccc12 (stereo not given)
inactive: [10] 100 % of control | [11] 94 % of control | [12] 100 % of control

COc1ccc(N=Nc2c(C)[nH]n(C)c2=O)cc1
inactive: [6] 96 % of control | [7] 97 % of control

COc1cc2c(cc1OC)C(C)N1CCc3cc(OC)c(OC)cc3C1C2 (stereo not given)
inactive: dose: 1.56 mg/kg/injection, schedule: Q01DX009 (ip), vehicle: Klucel (hydroxypropylcellulose) (HPC) 103 % of control | dose: 3.12 mg/kg/injection, schedule: Q01DX009 (ip), vehicle: Klucel (hydroxypropylcellulose) (HPC) 98 % of control

COc1ccccc1C(C)c1cc2c(cc1OC)OCO2 (stereo not given)
inactive: [16] 100 % of control | [17] 101 % of control | [18] 93 % of control

CC(=O)Nc1ccc(S(=O)(=O)Oc2noc3ccc(Cl)cc23)cc1
inactive: dose: 100.0 mg/kg/injection, schedule: Q04DX002 (ip), vehicle: Klucel (hydroxypropylcellulose) (HPC) 98 % of control | dose: 200.0 mg/kg/injection, schedule: Q04DX002 (ip), vehicle: Klucel (hydroxypropylcellulose) (HPC) 98 % of control | dose: 400.0 mg/kg/injection, schedule: Q04DX002 (ip), vehicle: Klucel (hydroxypropylcellulose) (HPC) 93 % of control

C=Cn1c([N+](=O)[O-])cnc1/C=C/c1ccc(C(=O)OCCN2CCCC2)cc1
inactive: dose: 12.5 mg/kg/injection, schedule: Q01DX001 (ip), vehicle: DMSO 105 % of control | dose: 25.0 mg/kg/injection, schedule: Q01DX001 (ip), vehicle: DMSO 98 % of control | dose: 50.0 mg/kg/injection, schedule: Q01DX001 (ip), vehicle: DMSO 104 % of control | dose: 100.0 mg/kg/injection, schedule: Q01DX001 (ip), vehicle: DMSO 100 % of control

Cc1ccc2c(N(C)C)cc(N(C)C)nc2c1C
inactive: dose: 50.0 mg/kg/injection, schedule: Q01DX009 (ip), vehicle: Klucel (hydroxypropylcellulose) (HPC) 104 % of control | dose: 100.0 mg/kg/injection, schedule: Q01DX009 (ip), vehicle: Klucel (hydroxypropylcellulose) (HPC) 105 % of control

Cc1cc(NC(=O)c2ccc(NC(=O)c3ccc(N)cc3)cc2)ccc1N=Nc1ccc2c(O)c(N=Nc3ccc4cc(S(=O)(=O)O)ccc4c3)c(S(=O)(=O)O)cc2c1
inactive: [16] 94 % of control | [17] 103 % of control | [18] 94 % of control

CC1=CCCC2C1(C)CCC(C)C2(C)Cc1cc(O)ccc1O (stereo not given)
inactive: [9] 100 % of control | dose: 25.0 mg/kg/injection, schedule: Q01DX009 (ip), vehicle: saline with Tween-80 103 % of control | [13] 107 % of control | dose: 100.0 mg/kg/injection, schedule: Q01DX001 (ip), vehicle: saline with Tween-80 97 % of control | [14] 94 % of control | dose: 200.0 mg/kg/injection, schedule: Q01DX001 (ip), vehicle: saline with Tween-80 99 % of control | dose: 400.0 mg/kg/injection, schedule: Q01DX001 (ip), vehicle: saline with Tween-80 88 % of control

O=C(c1ccccc1)N1OC12CCCCC2
inactive: [10] 102 % of control | [11] 99 % of control

CN(C)CCCNCCCCNCCCN(C)C
inactive: [13] 105 % of control | [14] 110 % of control | [15] 110 % of control

CC(=O)Nc1ccc(S(=O)(=O)Nc2ccc(O)c3ccccc23)cc1
inactive: dose: 50.0 mg/kg/injection, schedule: Q04DX003 (ip), vehicle: saline with Tween-80 88 % of control | [1] 90 % of control | dose: 200.0 mg/kg/injection, schedule: Q04DX003 (ip), vehicle: saline with Tween-80 100 % of control | [2] 117 % of control

COc1ccc2c(c1OC)N(C)CC1=C2OC(C)(C)C2C1CC1(C)CC2c2c(c3ccc(OC)c(OC)c3n(C)c2=O)O1 (stereo not given)
inactive: dose: 12.5 mg/kg/injection, schedule: Q01DX005 (ip), vehicle: Klucel (hydroxypropylcellulose) (HPC) 90 % of control | dose: 25.0 mg/kg/injection, schedule: Q01DX005 (ip), vehicle: Klucel (hydroxypropylcellulose) (HPC) 93 % of control | [10] 90 % of control

Cc1cc(O)c(C(=O)/C=C/c2ccnc3ccccc23)c(=O)o1
inactive: dose: 60.0 mg/kg/injection, schedule: Q01DX005 (ip), vehicle: Klucel (hydroxypropylcellulose) (HPC) 104 % of control | dose: 120.0 mg/kg/injection, schedule: Q01DX005 (ip), vehicle: Klucel (hydroxypropylcellulose) (HPC) 108 % of control

CC1CC(=O)N1C(=O)CCN=C=S (stereo not given)
inactive: [3] 111 % of control | [4] 120 % of control | [5] 117 % of control
